This assay relates to Senktide-induced bilateral ovariectomy rats. Kind of assay: Tail skin temperature in a Senktide-induced bilateral ovariectomy rat model. Type of assay: in vivo. As to conditions: OVX SD rats, oral 30 mg/kg, 30 min before s.c. Senktide, tail skin temperature over 75 min. From the text: Pharmacodynamic Study of the Test Compounds on Tail Skin Temperature in a Senktide-Induced Bilateral Ovariectomy Rat Model
To evaluate the effect of the test compounds on tail skin temperature in Senktide-induced bilateral ovariectomy rats.
2.3. Experimental Animals • Ten-Week-old female bilateral ovariectomy SD rats were purchased from Beijing Vital River Laboratory Animal Technology Co., Ltd. The animals were housed in a SPF grade animal facility with 5 SD rats per cage. The cages, bedding, feed and water were disinfected at high temperatures before use. All animals had free access to food and water.
Ten-week-old female SD rats were subjected to bilateral ovariectomy and recovered for two weeks, and then randomly divided into negative control group, model group and drug administration group (8 rats per group), based on body weight. The probe was attached to the dorsal surface of the rat tail with medical tape, 1-2 cm away from the tailhead of the rat.
The vehicle was administered orally to the negative control group and the model group, and different test compounds were administered orally to each drug administration group at a dose of 30 mg/kg and a volume of 10 mL/kg.
Thirty minutes after the oral administration of the vehicle or test compound, the negative control group was injected subcutaneously with normal saline (at a volume of 5 mL/kg); the model group and each drug administration group were injected subcutaneously with 0.2 mg/mL of Senktide (at a volume of 5 mL/kg) to induce the hot flashes-like symptom.
The change in tail skin temperature (ΔTST) at each time point relative to time point 0 was calculated, the ΔTST-time curve of the change in tail skin temperature was plotted, and the area under curve (AUCΔTST) was calculated. ΔTST=TSTn−TST0, TST0 is the tail skin temperature at 0 minute before the subcutaneous injection of normal saline or Senktide; TSTn is the tail skin temperature at the n minute after the subcutaneous injection.
AUCΔTST=Σ(ΔTSTn+ΔTSTn+5)*5/2

Drawing on patent US20230271969A1, “NITROGEN-CONTAINING FUSED RING DERIVATIVE INHIBITOR, PREPARATION METHOD THEREFOR AND USE THEREOF” (Shanghai Hansoh Biomedical Co., Ltd., priority 2020, published 2023), this text covers AUCΔTST for one compound.

`[2H]c1cc(C(=O)N2CCn3c(-c4nc(Cl)ns4)nnc3[C@H]2C)ccc1F` [Example 56, (R)-(3-(3-Chloro-1,2,4-thiadiazol-5-yl)-8-methyl-5,6-dihydro-[1,2,4]triazolo[4,3-a]pyrazin-7(8H)-yl)(4-fluorophenyl-3-d)methanone] returned an AUCΔTST of 53.8 ± 19.8 °C · min.
